Measured values published in patent publication US20030065039A1, “Biologically active 1,3-bis-aromatic-prop-2-en-1-ones, 1,3-bis-aromatic-propan-1-ones, and 1,3-bis-aromatic-prop-2-yn-1-ones” (Statens Serum Institute, priority 1997, published 2003).
Where two headings read alike, the source gives them in different places.

Experiments:
[1] = molecular target: T1, Helicobacter pylori fumarate reductase (Helicobacter pylori, UniProt O06913); assay type: biochemical; conditions: Control 19.2 ± 2.5
T1 construct: Membrane associated proteins were solubilized from the pellet in 150 mM KCl, pH 7.0; endogenous in cells; host or cells: Helicobacter pylori 007 strain; KCl-solubilised fraction (or sonicate supernatant)
T1 sequence (O06913 1-714): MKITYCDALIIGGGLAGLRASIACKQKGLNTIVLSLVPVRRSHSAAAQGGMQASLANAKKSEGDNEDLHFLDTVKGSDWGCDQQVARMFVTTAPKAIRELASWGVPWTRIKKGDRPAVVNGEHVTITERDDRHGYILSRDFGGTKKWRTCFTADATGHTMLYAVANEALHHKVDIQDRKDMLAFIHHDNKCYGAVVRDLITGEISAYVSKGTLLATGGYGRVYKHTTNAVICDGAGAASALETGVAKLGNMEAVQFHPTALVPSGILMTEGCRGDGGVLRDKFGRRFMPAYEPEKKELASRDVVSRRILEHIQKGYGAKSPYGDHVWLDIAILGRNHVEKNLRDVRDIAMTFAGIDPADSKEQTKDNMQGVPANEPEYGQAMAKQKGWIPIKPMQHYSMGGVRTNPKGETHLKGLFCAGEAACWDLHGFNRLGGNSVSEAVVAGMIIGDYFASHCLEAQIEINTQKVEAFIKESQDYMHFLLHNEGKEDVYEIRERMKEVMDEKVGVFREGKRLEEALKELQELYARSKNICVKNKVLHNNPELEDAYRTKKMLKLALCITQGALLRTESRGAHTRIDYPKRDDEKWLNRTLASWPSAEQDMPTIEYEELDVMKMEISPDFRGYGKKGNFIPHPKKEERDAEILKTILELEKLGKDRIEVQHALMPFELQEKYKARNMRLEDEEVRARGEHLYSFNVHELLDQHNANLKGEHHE
T1 sequence (O06914 1-245 partner): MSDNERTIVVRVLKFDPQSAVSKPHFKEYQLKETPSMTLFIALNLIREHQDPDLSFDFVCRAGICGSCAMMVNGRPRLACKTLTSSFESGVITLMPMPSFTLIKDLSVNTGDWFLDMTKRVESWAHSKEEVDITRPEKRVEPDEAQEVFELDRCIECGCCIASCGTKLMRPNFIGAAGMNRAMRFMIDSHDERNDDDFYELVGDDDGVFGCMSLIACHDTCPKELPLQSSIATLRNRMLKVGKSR
T1 sequence (O06912 1-255 partner): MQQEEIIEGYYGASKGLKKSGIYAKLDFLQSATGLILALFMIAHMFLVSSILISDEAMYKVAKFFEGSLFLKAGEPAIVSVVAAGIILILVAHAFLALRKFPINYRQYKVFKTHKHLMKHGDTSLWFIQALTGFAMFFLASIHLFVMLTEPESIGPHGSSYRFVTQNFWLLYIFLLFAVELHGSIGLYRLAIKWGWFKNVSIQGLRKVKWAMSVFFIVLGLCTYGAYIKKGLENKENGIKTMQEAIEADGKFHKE
Experimental: 1) Extraction of soluble FRD: Bacteria were harvested by centrifugation at 18,000 g for 10 min at 4° C., and were washed 2 times in an isotonic phosphate saline buffer (50 mM sodium phosphate, pH 7.2, 90 mM NaCl, 5 mM Kcl). Bacteria were lysed in 5 mM Tris-HCl, pH 7.4, for 15 minutes, and centrifuged 18,000 g for 10 minutes. Membrane associated proteins were solubilized from the pellet in 150 mM KCl, pH 7.0, in ice bath for 60 min, and then the supernatant was collected after centrifugation (18,000 g for 10 minutes) for the measurement of FRD activity.
2) Extraction of FRD by sonication: Bacteria were harvested by centrifugation at 18,000 g for 10 min at 4° C., were sonicated, and then the supernatant was collected after centrifugation (18,000 g for 10 minutes) for the measurement of FRD activity.
NADH-FRD activity was determined as the rate of NADH-oxidation upon addition of 1 mM fumarate in the KCl-solubilized fraction or sonicated fraction. The reaction was monitored spectrophotometrically at 340 nm (∈=6.2 mM^−1 cm^−1) using 100 μM NADH and usually 3 mg protein in both reference and sample cuvettes. The measurement was carried out in a Shimadzu UV-190 double-beam spectrophotometer. Protein concentrations were determined using a Bio-Rad protein assay (Bio-Rad Laboratories, 200 Alfred Nobel Dr. Hercules, Calif. 94547, USA).
KCl solubilised fraction of bacteria was incubated with different concentrations of various oxygenated chalcones at 28° C. and the remaining FRD activity was measured. The IC50 values were determined as the concentration at which 50% of the activity was inhibited.

[2] = Preliminary 14 days oral toxicity study in rats; assay type: in vivo; conditions: highest dose level 1000 mg/kg/day
Experimental: A preliminary 14 days oral toxicity study in rats was carried out with 6 compounds. Observations included clinical signs, body weights, food intake, haematology, clinical chemistry and macroscopic pathology.

[3] = test system: Vero cell cultures; test: Cytotoxicity in Vero cell cultures; assay type: cell-based; conditions: Vero cells; values given as fractions, footnote a not given
From the text: (§1) In the following is reported the results from a Vero cell culture infected with different viruses. The cell culture used as well as the methods applied are well known to a person skilled in the art.

[4] = test system: Coxsackie virus B4; test: Antiviral activity in Vero cell cultures; assay type: cell-based; conditions: Vero cells; values given as fractions
Experimental: (§2) IC50 values are determined by the virus plaque formation and/or the virus cytopathic assay using standard methods well-known in the art.
as §1

[5] = test system: Parainfluenza-3 Virus; test: Antiviral activity in Vero cell cultures; assay type: cell-based; conditions: Vero cells; values given as fractions
Experimental: as §2, §1

[6] = test system: Reovirus-1; test: Antiviral activity in Vero cell cultures; assay type: cell-based; conditions: Vero cells; values given as fractions
Experimental: as §2, §1

[7] = test system: Simliki forest virus; test: Antiviral activity in Vero cell cultures; assay type: cell-based; conditions: Vero cells; values given as fractions
Experimental: as §2, §1

[8] = test system: Sindbis virus; test: Antiviral activity in Vero cell cultures; assay type: cell-based; conditions: Vero cells; values given as fractions
Experimental: as §2, §1

[9] = test system: human embryonic lung (HEL) cells; test: Cytotoxicity in human embryonic lung (HEL) cells; assay type: cell-based; conditions: HEL cell growth reduced by 50%; values given as fractions
[10] = test system: IFN-γ; test: IFN-γ producing human mononuclear cells (PMA+inomycin); assay type: cell-based; conditions: for % IFN-γ producing cells / inhibition at 12.5 µg/mL: 1b Experiment 2, PMA+inomycin, 12.5 μg/ml; for % IFN-γ producing cells: DMSO Control 16.4; for inhibition of IFN-γ production: concentration of 12.5 μg/ml; for inhibition at 12.5 µg/mL: Homo sapiens
Experimental: Mitogens: LPS at a final conc. of 1 μg/ml for TNF-α and PMA+inomycin for IFN-γ.
Incubation condition: Cells and mitogen added at the same time and the compound solution added immediately after in polypropylene tubes and incubated at 37° C. in CO2 incubator overnight. The following day the cells and the supernatant were harvested for TNF-α determination.

[11] = compound 50 (unit not given), mean±SD, three experiments

Structure (SMILES)	FRD activity ([1]; compound 1 (unit not given))	FRD activity ([1]; compound 5 (unit not given))	FRD activity ([1]; compound 10 (unit not given))	FRD activity ([1]; compound 25 (unit not given))	FRD activity [1, 11]	toxic effects [2]	Minimum Cytotoxic Concentration [3]	Minimum inhibitory concentration, Coxsackie virus B4 [4]	Minimum inhibitory concentration, Parainfluenza-3 Virus [5]	Minimum inhibitory concentration, Reovirus-1 [6]	Minimum inhibitory concentration, Simliki forest virus [7]	Minimum inhibitory concentration, Sindbis virus [8]	Cytotoxicity CC50 [9]	% IFN-γ producing cells [10] [%]	inhibition of IFN-γ production ([10]; 1b Experiment 3)	inhibition of IFN-γ production ([10]; 1b Experiment 4)	inhibition at 12.5 µg/mL [10] [%]
C=CC(C)(C)c1cc(/C=C/C(=O)c2ccc(O)cc2)c(OC)cc1O [Licochalcone A]	14.5 ± 2.9 mu/mg of protein	6.8 ± 1.7 mu/mg of protein	2.5 ± 1.1 mu/mg of protein	0.9 ± 0.6 mu/mg of protein	0.0 mu/mg of protein	No toxic effects	<1/100	<1/100	<1/100	<1/100	<1/100	1/600	1/600				
COc1cc(/C=C/C(=O)c2ccccc2F)cc(OC)c1 [PH135, 2′-fluoro-3,5-dimethoxychalcone]														14.2	no inhibition	no inhibition	14
COc1cc(/C=C/C(=O)c2ccc([N+](=O)[O-])cc2)cc(OC)c1 [PH105, 4′-nitro-3,5-dimethoxychalcone]	15.8 ± 2.0 mu/mg of protein	8.5 ± 1.8 mu/mg of protein	4.1 ± 1.5 mu/mg of protein	1.7 ± 0.7 mu/mg of protein	0.0 mu/mg of protein												
C=CCOc1ccc(C(=O)/C=C/c2cc(OC)cc(OC)c2)cc1 [SBC-35ma, 3,5-dimethoxy-4′-allyloxychalcone]						No toxic effects	<1/100	<1/100	<1/100	<1/100	<1/100	<1/100	<1/60				
COc1cc(/C=C/C(=O)c2ccc(C3CCCCC3)cc2)cc(OC)c1 [PH104, 3,5-dimethoxy-4′-cyclohexylchalcone]														17.0	no inhibition	no inhibition	0
